Measurements reported in the NIST ThermoML archive (doi:10.1016/j.tca.2009.07.008).
± gives the expanded uncertainty stated by the source.

How the values were obtained:
[1] = 303.15 K; 101.33 kPa; Liquid; Capillary tube (Ostwald / Ubbelohde) method
[2] = mn = molality of the nth substance listed, in mol/kg; details: 303.15 K, 101 kPa, Liquid, Capillary tube (Ostwald / Ubbelohde) method

For `CCCCN` [1-butanamine], which viscosity [1] is on record?
Its viscosity is 0.4442 ± 0.0054 mPa·s.

With `CCCNCCC` [dipropylamine] as the compound, how does the viscosity [1] read?
The viscosity was 0.5118 ± 0.0058 mPa·s.

Which viscosity [1] does the source give for `C1CCOC1` [tetrahydrofuran] here?
Its viscosity is 0.326 ± 0.0047 mPa·s.

For `CCCCN` [1-butanamine] + C1COCCO1, which viscosity ([2]; m1 = 0.1085) is on record?
Its viscosity is 1.06 ± 0.0078 mPa·s.

What about the viscosity ([2]; m1 = 0.2365) of the same compound?
The viscosity was 1.046 ± 0.0077 mPa·s.

What about the viscosity ([2]; m1 = 0.3679) of the same compound?
Its viscosity is 1.032 ± 0.0077 mPa·s.

What about the viscosity ([2]; m1 = 0.4745) of the same compound?
The viscosity was 1.02 ± 0.0076 mPa·s.

What about the viscosity ([2]; m1 = 0.5834) of the same compound?
Its viscosity is 1.007 ± 0.0076 mPa·s.

And the viscosity ([2]; m1 = 0.7574)?
Its viscosity is 0.9893 ± 0.0075 mPa·s.

What about the viscosity ([2]; m1 = 0.8872) of the same compound?
Its viscosity is 0.9764 ± 0.0074 mPa·s.

And the viscosity ([2]; m1 = 1.004)?
Its viscosity is 0.9652 ± 0.0074 mPa·s.

And the viscosity ([2]; m1 = 1.116)?
Its viscosity is 0.9543 ± 0.0073 mPa·s.

For `CCCCNCCCC` [dibutylamine] + C1CCOC1, which viscosity ([2]; m1 = 0.1402) is on record?
The viscosity was 0.3333 ± 0.0047 mPa·s.

What about the viscosity ([2]; m1 = 0.2993) of the same compound?
Its viscosity is 0.3417 ± 0.0048 mPa·s.

What about the viscosity ([2]; m1 = 0.4313) of the same compound?
Its viscosity is 0.3498 ± 0.0048 mPa·s.

What about the viscosity ([2]; m1 = 0.5953) of the same compound?
Its viscosity is 0.3567 ± 0.0048 mPa·s.

And the viscosity ([2]; m1 = 0.7592)?
The viscosity was 0.3648 ± 0.0048 mPa·s.

What about the viscosity ([2]; m1 = 0.8997) of the same compound?
The viscosity was 0.3735 ± 0.0049 mPa·s.

What about the viscosity ([2]; m1 = 1.027) of the same compound?
The viscosity was 0.3806 ± 0.0049 mPa·s.

What about the viscosity ([2]; m1 = 1.201) of the same compound?
Its viscosity is 0.3912 ± 0.0049 mPa·s.

And the viscosity ([2]; m1 = 1.381)?
The viscosity was 0.4015 ± 0.005 mPa·s.

Which viscosity [1] does the source give for `CCCN` [propan-1-amine] here?
Its viscosity is 0.3527 ± 0.005 mPa·s.

With `CCCNCCC` [dipropylamine] + C1CCOC1 as the compound, how does the viscosity ([2]; m1 = 0.1794) read?
Its viscosity is 0.332 ± 0.0047 mPa·s.

And the viscosity ([2]; m1 = 0.285)?
Its viscosity is 0.335 ± 0.0047 mPa·s.

And the viscosity ([2]; m1 = 0.4155)?
The viscosity was 0.3388 ± 0.0047 mPa·s.

What about the viscosity ([2]; m1 = 0.5881) of the same compound?
Its viscosity is 0.3437 ± 0.0048 mPa·s.

And the viscosity ([2]; m1 = 0.7109)?
The viscosity was 0.3491 ± 0.0048 mPa·s.

And the viscosity ([2]; m1 = 0.9435)?
The viscosity was 0.3545 ± 0.0048 mPa·s.

And the viscosity ([2]; m1 = 1.051)?
Its viscosity is 0.3574 ± 0.0048 mPa·s.

And the viscosity ([2]; m1 = 1.198)?
The viscosity was 0.364 ± 0.0048 mPa·s.

What about the viscosity ([2]; m1 = 1.357) of the same compound?
The viscosity was 0.3717 ± 0.0049 mPa·s.

What does the source list for `CCCCN(CCCC)CCCC` [tributylamine] + C1COCCO1?
viscosity ([2]; m1 = 0.1229): 1.062 ± 0.0078 mPa·s; viscosity ([2]; m1 = 0.2173): 1.05 ± 0.0078 mPa·s; viscosity ([2]; m1 = 0.3227): 1.033 ± 0.0077 mPa·s; viscosity ([2]; m1 = 0.4476): 1.023 ± 0.0077 mPa·s; viscosity ([2]; m1 = 0.5768): 1.008 ± 0.0076 mPa·s; viscosity ([2]; m1 = 0.7655): 0.9912 ± 0.0075 mPa·s; viscosity ([2]; m1 = 0.8789): 0.9804 ± 0.0075 mPa·s; viscosity ([2]; m1 = 1.028): 0.9659 ± 0.0074 mPa·s; viscosity ([2]; m1 = 1.179): 0.9569 ± 0.0074 mPa·s

What does the source list for `CCN(CC)CC` [triethylamine] + C1COCCO1?
viscosity ([2]; m1 = 0.159): 1.054 ± 0.0078 mPa·s; viscosity ([2]; m1 = 0.2697): 1.042 ± 0.0077 mPa·s; viscosity ([2]; m1 = 0.4098): 1.018 ± 0.0076 mPa·s; viscosity ([2]; m1 = 0.5388): 0.998 ± 0.0075 mPa·s; viscosity ([2]; m1 = 0.6616): 0.98 ± 0.0074 mPa·s; viscosity ([2]; m1 = 0.8419): 0.955 ± 0.0073 mPa·s; viscosity ([2]; m1 = 0.9909): 0.932 ± 0.0072 mPa·s; viscosity ([2]; m1 = 1.135): 0.914 ± 0.0071 mPa·s; viscosity ([2]; m1 = 1.27): 0.894 ± 0.0071 mPa·s

For `CCCN(CCC)CCC` [tripropylamine], which viscosity [1] is on record?
Its viscosity is 0.5977 ± 0.0062 mPa·s.

With `C1COCCO1` [1,4-dioxane] as the compound, how does the viscosity [1] read?
The viscosity was 1.075 ± 0.0079 mPa·s.

Which results are given for `CCCCN(CCCC)CCCC` [tributylamine] + C1CCOC1?
viscosity ([2]; m1 = 0.1637): 0.3385 ± 0.0047 mPa·s; viscosity ([2]; m1 = 0.3071): 0.3517 ± 0.0048 mPa·s; viscosity ([2]; m1 = 0.4107): 0.3637 ± 0.0048 mPa·s; viscosity ([2]; m1 = 0.5836): 0.3764 ± 0.0049 mPa·s; viscosity ([2]; m1 = 0.7131): 0.3894 ± 0.0049 mPa·s; viscosity ([2]; m1 = 0.9025): 0.4036 ± 0.005 mPa·s; viscosity ([2]; m1 = 1.125): 0.4181 ± 0.005 mPa·s; viscosity ([2]; m1 = 1.204): 0.4323 ± 0.0051 mPa·s; viscosity ([2]; m1 = 1.31): 0.4444 ± 0.0051 mPa·s

With `CCN(CC)CC` [triethylamine] as the compound, how does the viscosity [1] read?
Its viscosity is 0.3296 ± 0.0049 mPa·s.

For `CCCCN(CCCC)CCCC` [tributylamine], which viscosity [1] is on record?
Its viscosity is 1.167 ± 0.0097 mPa·s.

Which viscosity [1] does the source give for `CCCCNCCCC` [dibutylamine] here?
Its viscosity is 0.7584 ± 0.0071 mPa·s.

With `CCCN(CCC)CCC` [tripropylamine] + C1COCCO1 as the compound, how does the viscosity ([2]; m1 = 0.1093) read?
Its viscosity is 1.06 ± 0.0078 mPa·s.

What about the viscosity ([2]; m1 = 0.2293) of the same compound?
Its viscosity is 1.045 ± 0.0077 mPa·s.

And the viscosity ([2]; m1 = 0.3509)?
Its viscosity is 1.032 ± 0.0077 mPa·s.

And the viscosity ([2]; m1 = 0.4408)?
Its viscosity is 1.022 ± 0.0076 mPa·s.

What about the viscosity ([2]; m1 = 0.5919) of the same compound?
The viscosity was 1.007 ± 0.0076 mPa·s.

What about the viscosity ([2]; m1 = 0.7147) of the same compound?
Its viscosity is 0.9934 ± 0.0075 mPa·s.

And the viscosity ([2]; m1 = 0.8383)?
The viscosity was 0.9807 ± 0.0075 mPa·s.

And the viscosity ([2]; m1 = 0.9836)?
Its viscosity is 0.9694 ± 0.0074 mPa·s.

And the viscosity ([2]; m1 = 1.151)?
The viscosity was 0.9571 ± 0.0074 mPa·s.
